Experimental data from patent US20220041647A1, “ESTRA-1,3,5(10)-TRIENE COMPOUNDS CONDENSED IN POSITION 16(17) WITH A PYRAZOLE RING AS INHIBITORS OF 17-HSD1” (FORENDO PHARMA LTD, priority 2018, published 2022).

Biological target: T1, recombinant human 17β-HSD2 (Homo sapiens, UniProt P37059)
T1 construct: made in house; host or cells: Sd9 (Sf9) insect cells, baculovirus (Bac to Bac Expression System)
T1 sequence (P37059 1-387): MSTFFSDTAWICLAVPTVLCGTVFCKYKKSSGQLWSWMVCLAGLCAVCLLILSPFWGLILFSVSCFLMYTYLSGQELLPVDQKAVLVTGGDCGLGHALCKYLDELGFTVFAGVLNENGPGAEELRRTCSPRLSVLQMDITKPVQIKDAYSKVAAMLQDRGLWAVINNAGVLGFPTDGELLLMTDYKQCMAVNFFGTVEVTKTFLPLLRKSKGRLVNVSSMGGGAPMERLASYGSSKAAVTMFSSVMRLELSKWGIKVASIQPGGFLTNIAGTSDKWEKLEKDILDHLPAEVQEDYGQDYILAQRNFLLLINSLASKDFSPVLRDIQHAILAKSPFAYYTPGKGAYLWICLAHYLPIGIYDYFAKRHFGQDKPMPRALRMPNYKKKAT
Assay: Inhibition of recombinant human 17β-HSD2 (estradiol to estrone conversion, HPLC/radioactivity)
Format: biochemical
Conditions: compound 1 μM; 50 nM estradiol, 1 mM NADH, 30 min RT
In short: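 Membrane extract of Sf9 cells expressing recombinant human 17β-HSD2 (4 μg/ml), in 20 mM KH2PO4 pH 8.5 with 50 nM ^3H-spiked estradiol and 1 mM NADH, 30 min at RT, 1% DMSO. Compound at 1 μM or 0.1 μM; estrone formation by HPLC radioactivity, % inhibition relative to uninhibited conversion.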

Compound	inhibition at 1 µM [%]
COc1ccc(NC(=O)CC[C@@H]2c3c[nH]nc3[C@@]3(C)CCC4c5ccccc5CCC4C23)nn1 (stereo partly drawn) [Compound 156, N-(6-methoxypyridazin-3-yl)-3-((8aS,12S)-8a-methyl-1,2,6b,7,8,8a,10,12,12a,12b-decahydronaphtho[2′,1′:4,5]indeno[1,2-c]pyrazol-12-yl)propanamide]	-3
C[C@]12CCC3c4ccccc4CCC3C1[C@H](CCC(=O)Nc1ccc(F)cn1)c1c[nH]nc12 (stereo partly drawn) [Compound 159, N-(5-fluoropyridin-2-yl)-3-((8aS,12S)-8a-methyl-1,2,6b,7,8,8a,10,12,12a,12b-decahydronaphtho[2′,1′:4,5]indeno[1,2-c]pyrazol-12-yl)propanamide]	3
C[C@]12CCC3c4ccccc4CCC3C1[C@H](CCC(=O)Nc1cc(F)ccn1)c1c[nH]nc12 (stereo partly drawn) [Compound 162, N-(4-fluoropyridin-2-yl)-3-((8aS,12S)-8a-methyl-1,2,6b,7,8,8a,10,12,12a,12b-decahydronaphtho[2′,1′:4,5]indeno[1,2-c]pyrazol-12-yl)propanamide]	9
COc1ccnc(NC(=O)CC[C@@H]2c3c[nH]nc3[C@@]3(C)CCC4c5ccccc5CCC4C23)c1 (stereo partly drawn) [Compound 165, N-(4-methoxypyridin-2-yl)-3-((8aS,12S)-8a-methyl-1,2,6b,7,8,8a,10,12,12a,12b-decahydronaphtho[2′1′:4,5]indeno[1,2-c]pyrazol-12-yl)propanamide]	-2
Cc1ccnc(NC(=O)CC[C@@H]2c3c[nH]nc3[C@@]3(C)CCC4c5ccccc5CCC4C23)c1 (stereo partly drawn) [Compound 168, 3-((8aS,12S)-8a-methyl-1,2,6b,7,8,8a,10,12,12a,12b-decahydronaphtho[2′,1′:4,5]indeno[1,2-c]pyrazol-12-yl)-N-(4-methylpyridin-2-yl)propanamide]	5
C[C@]12CCC3c4ccccc4CCC3C1[C@H](CCC(=O)Nc1ccccn1)c1c[nH]nc12 (stereo partly drawn) [Compound 171, 3-((8aS,12S)-8a-methyl-1,2,6b,7,8,8a,10,12,12a,12b-decahydronaphtho[2′,1′:4,5]indeno[1,2-c]pyrazol-12-yl)-N-(pyridin-2-yl)propanamide]	-1
C[C@]12CCC3c4ccccc4CCC3C1[C@H](CCC(=O)Nc1cnccn1)c1c[nH]nc12 (stereo partly drawn) [Compound 189, 3-((8aS,12S)-8a-methyl-1,2,6b,7,8,8a,10,12,12a,12b-decahydronaphtho[2′,1′:4,5]indeno[1,2-c]pyrazol-12-yl)-N-(pyrazin-2-yl)propanamide]	9
C[C@]12CCC3c4cccc(F)c4CCC3C1[C@H](CCC(=O)NC1CCCCC1)c1c[nH]nc12 (stereo partly drawn) [Compound 207, N-cyclohexyl-3-((8aS,12S)-3-fluoro-8a-methyl-1,2,6b,7,8,8a,10,12,12a,12b-decahydronaphtho[2′,1′:4,5]indeno[1,2-c]pyrazol-12-yl)propanamide]	4
C[C@]12CCC3c4cccc(F)c4CCC3C1[C@H](CCC(=O)N1CCCC1)c1c[nH]nc12 (stereo partly drawn) [Compound 210, 3-((8aS,12S)-3-fluoro-8a-methyl-1,2,6b,7,8,8a,10,12,12a,12b-decahydronaphtho[2′,1′:4,5]indeno[1,2-c]pyrazol-12-yl)-1-(pyrrolidin-1-yl)propan-1-one]	0
CCN(CC)C(=O)CC[C@@H]1c2c[nH]nc2[C@@]2(C)CCC3c4cccc(F)c4CCC3C12 (stereo partly drawn) [Compound 216, N,N-diethyl-3-((8aS,12S)-3-fluoro-8a-methyl-1,2,6b,7,8,8a,10,12,12a,12b-decahydronaphtho[2′,1′:4,5]indeno[1,2-c]pyrazol-12-yl)propanamide]	6
C[C@]12CCC3c4cccc(F)c4CCC3C1[C@H](CCC(=O)N1CCC3(CCOCC3)C1)c1c[nH]nc12 (stereo partly drawn) [Compound 219, 3-((8aS,12S)-3-fluoro-8a-methyl-1,2,6b,7,8,8a,10,12,12a,12b-decahydronaphtho[2′,1′:4,5]indeno[1,2-c]pyrazol-12-yl)-1-(8-oxa-2-azaspiro[4.5]decan-2-yl)propan-1-one]	3
CN(C)C(=O)CC[C@@H]1c2c[nH]nc2[C@@]2(C)CCC3c4cccc(F)c4CCC3C12 (stereo partly drawn) [Compound 222, 3-((8aS,12S)-3-fluoro-8a-methyl-1,2,6b,7,8,8a,10,12,12a,12b-decahydronaphtho[2′,1′:4,5]indeno[1,2-c]pyrazol-12-yl)-N,N-dimethylpropanamide]	0
C[C@]12CCC3c4cccc(F)c4CCC3C1[C@H](CCC(=O)Nc1ncccc1F)c1c[nH]nc12 (stereo partly drawn) [Compound 231, 3-((8aS,12S)-3-fluoro-8a-methyl-1,2,6b,7,8,8a,10,12,12a,12b-decahydronaphtho[2′,1′:4,5]indeno[1,2-c]pyrazol-12-yl)-N-(3-fluoropyridin-2-yl)propanamide]	4
